Reference: ChEMBL document CHEMBL4190244, “Perylenyltriazoles inhibit reproduction of enveloped viruses” (Eur J Med Chem, 2017)

Experiments:
[1] = tested on: Tick-borne encephalitis virus; assay: Antiviral activity against TBEV Absettarov infected in PEK cells preincubated simultaneously with cells and virus for 1 hr with shaking every 15 to 20 mins measured after 6 days by gentian violet-staining based assay; assay type: functional, organism-based
[2] = Cytotoxicity against PEK cells after 7 days; assay type: cell-based, Sus scrofa; settings: pig
[3] = Cytotoxicity against PEK cells after 24 hrs; assay type: cell-based, Sus scrofa; settings: pig

SMILES	EC50 [1] [µM]	CC50 at 168 h [2] [µM]	CC50 at 24 h [3] [µM]
O=c1[nH]c(=O)n([C@H]2C[C@H](O)[C@@H](CO)O2)cc1-n1cc(-c2ccc3c4cccc5cccc(c6cccc2c63)c54)nn1	0.038	> 50	> 50
O=c1[nH]c(=O)n([C@@H]2O[C@H](CO)[C@@H](O)[C@H]2O)cc1-n1cc(-c2ccccc2)nn1	> 50	> 50	> 50
O=c1[nH]c(=O)n([C@@H]2O[C@H](CO)[C@@H](O)[C@H]2O)cc1-n1cc(-c2ccc3c4cccc5cccc(c6cccc2c63)c54)nn1	0.031	> 50	> 50
OCCn1cc(-c2cc3cccc4c5cccc6cccc(c(c2)c34)c65)nn1	0.023	> 50	> 50
O=c1[nH]c(=O)n([C@H]2C[C@H](O)[C@@H](CO)O2)cc1-n1cc(-c2cc3cccc4c5cccc6cccc(c(c2)c34)c65)nn1	0.06	> 50	> 50
OCCn1cc(-c2ccc3c4cccc5cccc(c6cccc2c63)c54)nn1	0.1	> 50	> 50
O=c1[nH]c(=O)n([C@@H]2O[C@H](CO)[C@@H](O)[C@H]2O)cc1-n1cc(-c2cc3cccc4c5cccc6cccc(c(c2)c34)c65)nn1	0.06	> 50	> 50
O=c1[nH]c(=O)n([C@H]2C[C@H](O)[C@@H](CO)O2)cc1-n1cc(-c2ccccc2)nn1	> 50	> 50	> 50
